From ChEMBL document CHEMBL1201862, “PubChem BioAssay data set” (2004) come the findings set out here.

Molecules are shown by their SMILES.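 In this assay, cells in 96-well plates receive the compound at five concentrations for 48 hours. Endpoints are linearly interpolated between the surrounding concentrations. GI50 marks 50% less growth.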 Activity calls are given as the source filed them. No stated cut-off is given here; in the data, active = GI50 up to about 1.1 µM and inactive = higher. Where only a bound is given, the exact number is not on record here.

Among the test systems are PC-3; HCT-15; OVCAR-5; SF-268; HL-60; M14; HOP-62; Malme-3M; SK-MEL-28; SK-OV-3; NCI-H226; OVCAR-8; SF-539; UO-31; UACC-257; A549; LOX IMVI; SW-620; UACC-62; NCI-H460.
Common to all, as to test: NCI tumour cell line growth inhibition, 48 h

As for `CCOC(=O)c1c(-c2ccc(OC)cc2)c(C#N)c(=S)n(C2OC(CO)C(O)C(O)C2O)c1C` (stereo not given), the GI50 is > 100 µM (inactive) in the assay with PC-3; more than 100 µM in the assay with HCT-15; > 100 µM (inactive) in the assay on OVCAR-5; > 100 µM (inactive) with SF-268; > 100 µM (inactive) with HL-60; > 100 µM (inactive) in the assay with M14. For the same compound, the GI50 with HOP-62, with Malme-3M, with SK-MEL-28, in the assay on SK-OV-3, with NCI-H226 and in the assay with OVCAR-8 was > 100 µM (inactive) throughout. For the same compound, the GI50 in the assay with SF-539, with UO-31, with UACC-257, with A549, with LOX IMVI and in the assay with SW-620 was > 100 µM (inactive) each time.
As for `CC(=O)O[C@H]1C(=O)[C@@]2(C)[C@H]([C@H](OC(=O)c3ccco3)[C@]3(O)C[C@H](OC(=O)[C@H](O)[C@@H](NC(=O)c4ccccc4)c4ccccc4)C(C)=C1C3(C)C)[C@]1(OC(C)=O)CO[C@@H]1C[C@@H]2O`, the GI50 is 0.12 µM (active) in the assay on PC-3; 0.277 µM (active) in the assay on UACC-62; 0.164 µM (active) in the assay with NCI-H460; 15.1 µM with HCT-15; 0.333 µM (active) with OVCAR-5; 0.185 µM (active) with SF-268. Moreover, the GI50 was 0.0227 µM (active) with HL-60; 0.421 µM (active) with M14; 0.676 µM (active) with HOP-62; 0.119 µM (active) with Malme-3M; 0.287 µM (active) in the assay on SK-OV-3; 0.429 µM (active) in the assay on NCI-H226. Further, the GI50 is 0.273 µM (active) in the assay on OVCAR-8; 0.0356 µM (active) in the assay with SF-539; > 18.3 µM (inactive) in the assay on UO-31; 0.42 µM (active) in the assay with UACC-257; 0.518 µM (active) in the assay on A549; 0.129 µM (active) in the assay on LOX IMVI. Further, the GI50 with SW-620 is 0.146 µM (active).
Consider `Cc1ccc2c(c1)C(=O)c1nc(C)ccc1C2=O`, for which the GI50 was 35.2 µM (inactive) in the assay on PC-3; 24.3 µM (inactive) in the assay with UACC-62; 22.6 µM in the assay with HCT-15; 86.1 µM (inactive) in the assay on OVCAR-5; 32 µM (inactive) in the assay on SF-268; 21.3 µM (inactive) in the assay with HL-60. Besides, the GI50 was 32.7 µM (inactive) with M14; 69 µM (inactive) with HOP-62; 4.95 µM (inactive) in the assay with Malme-3M; 50.7 µM (inactive) with SK-MEL-28; > 100 µM (inactive) with SK-OV-3; 43.5 µM (inactive) with NCI-H226. The GI50 in the assay with OVCAR-8 was 27 µM (inactive); in the assay on SF-539, 21.7 µM (inactive); in the assay with UO-31 it was 26.4 µM (inactive); in the assay on UACC-257 it was 23.6 µM (inactive); with A549, 31 µM (inactive); in the assay with LOX IMVI, 19.8 µM (inactive). The GI50 with SW-620 was 33.5 µM (inactive).
`O=C1/C(=C/c2ccccc2)N=C2Sc3c([nH]cnc3=O)N12`: the GI50 is > 100 µM (inactive) in the assay on PC-3; 68.9 µM in the assay with HCT-15; > 100 µM (inactive) in the assay with OVCAR-5; > 100 µM (inactive) in the assay with SF-268; 42.3 µM (inactive) with HL-60; > 100 µM (inactive) in the assay with M14. Besides, the GI50 in the assay on HOP-62 was > 100 µM (inactive); with Malme-3M it was > 100 µM (inactive); in the assay with SK-MEL-28, > 100 µM (inactive); with SK-OV-3, > 100 µM (inactive); in the assay on NCI-H226, 78.2 µM (inactive); in the assay on OVCAR-8 it was > 100 µM (inactive). Moreover, the GI50 with SF-539, in the assay on UO-31, in the assay on UACC-257, in the assay on A549, in the assay on LOX IMVI and in the assay on SW-620 was > 100 µM (inactive) in each case.
On to `O=C(CN1CCCCC1)Nc1ccc2c(c1)C1Oc3ccccc3CC1CO2` (stereo not given), for which the GI50 in the assay on PC-3 was 17.7 µM (inactive); in the assay with UACC-62 it was 16.4 µM (inactive); with HCT-15 it was 15.5 µM; in the assay with OVCAR-5, 18.7 µM (inactive); in the assay on SF-268, 34.2 µM (inactive); with HL-60, 46.1 µM (inactive). The GI50 in the assay on M14 was 18.2 µM (inactive); in the assay with HOP-62 it was 16.9 µM (inactive); in the assay with Malme-3M, 16.7 µM (inactive); in the assay on SK-OV-3, 32.8 µM (inactive); in the assay with NCI-H226 it was 21 µM (inactive); in the assay on OVCAR-8, 39 µM (inactive). For the same compound, the GI50 was 19.1 µM (inactive) with SF-539; 21.2 µM (inactive) in the assay on UO-31; 19.2 µM (inactive) with UACC-257; 32.5 µM (inactive) with A549; 16.4 µM (inactive) with LOX IMVI; 18.8 µM (inactive) in the assay on SW-620.
On to `CC(C)(CO)CNc1nc(N)nc(Cl)c1/C=N/O`, for which the GI50 with PC-3 was 49.5 µM (inactive); in the assay with UACC-62 it was 31.8 µM (inactive); in the assay with NCI-H460 it was 30 µM (inactive); in the assay with HCT-15, 61.7 µM; in the assay on OVCAR-5, 41.2 µM (inactive); with SF-268 it was 8.91 µM (inactive). Also, the GI50 in the assay on HL-60 is 29.8 µM (inactive); in the assay with HOP-62 it was 30.9 µM (inactive); in the assay with Malme-3M, 57.4 µM (inactive); in the assay with SK-MEL-28, 48.4 µM (inactive); with NCI-H226, 22.6 µM (inactive); with OVCAR-8, 31.6 µM (inactive). The GI50 with SF-539 is 30.6 µM (inactive); in the assay on UO-31 it was 17.3 µM (inactive); in the assay with UACC-257, 36.1 µM (inactive); with A549, 16.9 µM (inactive); with LOX IMVI it was 12.1 µM (inactive); in the assay with SW-620 it was 82.6 µM (inactive).
Turning to `COc1cc(C[C@H]2c3cc(OC)c(OC)cc3CCN2C)c(Oc2cc3c(cc2OC)-c2c(OC)c(OC)cc4c2[C@H](C3)N(C)CC4)cc1OC` [THALICARPINE], the GI50 in the assay on PC-3 is 4.93 µM (inactive); in the assay on UACC-62, 6.65 µM (inactive); with NCI-H460, 9.16 µM (inactive); in the assay with HCT-15, 5.04 µM; in the assay on OVCAR-5, 10.5 µM (inactive); in the assay with SF-268 it was 9.98 µM (inactive). The GI50 is 2.84 µM (inactive) in the assay on HL-60; 1.52 µM (inactive) with M14; 10.6 µM (inactive) with HOP-62; 9.44 µM (inactive) with Malme-3M; 4.02 µM (inactive) in the assay with SK-MEL-28; 6.58 µM (inactive) with NCI-H226. The GI50 in the assay with OVCAR-8 is 7.43 µM (inactive); in the assay with SF-539, 8.28 µM (inactive); with UO-31 it was 4.66 µM (inactive); in the assay on UACC-257, 5.13 µM (inactive); in the assay with A549, 11.9 µM (inactive); in the assay on LOX IMVI, 7.21 µM (inactive). Besides, the GI50 with SW-620 is 7.53 µM (inactive).
For `COc1ccc(/C=C2\CCC(C)/C(=C\c3ccc(OC)c(OC)c3)C2=O)cc1OC` (stereo not given), the GI50 is 3.39 µM (inactive) in the assay on PC-3; 6.21 µM (inactive) with UACC-62; 5.37 µM in the assay with HCT-15; 3.59 µM (inactive) with OVCAR-5; 6.89 µM (inactive) in the assay with SF-268; 1.73 µM (inactive) with HL-60. For the same compound, the GI50 with M14 is 5.38 µM (inactive); in the assay on Malme-3M it was 4.58 µM (inactive); in the assay with SK-MEL-28 it was 10.7 µM (inactive); with SK-OV-3, 9.2 µM (inactive); in the assay with NCI-H226 it was 4.65 µM (inactive); in the assay with OVCAR-8, 3.76 µM (inactive). Also, the GI50 in the assay with SF-539 is 3.42 µM (inactive); with UO-31, 8.45 µM (inactive); with UACC-257 it was 2.88 µM (inactive); with LOX IMVI it was 4.33 µM (inactive); in the assay on SW-620 it was 6.59 µM (inactive).
Take `c1cc2nnc1SCCCSc1ccc(nn1)SCCCS2`: the GI50 in the assay with PC-3 is 38.7 µM (inactive); in the assay on UACC-62, > 25.8 µM (inactive); in the assay on OVCAR-5 it was 31.3 µM (inactive); in the assay with SF-268, 22.2 µM (inactive); with HL-60 it was > 19.9 µM (inactive); with M14, > 25.9 µM (inactive). Moreover, the GI50 in the assay with HOP-62 is 16 µM (inactive); with Malme-3M, > 48.8 µM (inactive); in the assay with SK-MEL-28 it was > 46.5 µM (inactive); with SK-OV-3, 24.7 µM (inactive); in the assay with NCI-H226, 24.7 µM (inactive); with OVCAR-8, > 39.6 µM (inactive). Also, the GI50 in the assay on SF-539 is 23.5 µM (inactive); with UO-31, > 100 µM (inactive); in the assay with UACC-257 it was > 39.9 µM (inactive); in the assay on A549, 41.6 µM (inactive); in the assay with LOX IMVI it was > 21.9 µM (inactive); in the assay with SW-620 it was > 53.3 µM (inactive).
Consider `CC(=O)OCCOCn1c2c(c(=O)[nH]c1=O)CCC2`, for which the GI50 in the assay with PC-3 is > 100 µM (inactive); with HCT-15, more than 100 µM; with OVCAR-5, > 100 µM (inactive); with SF-268, > 100 µM (inactive); in the assay on HL-60, > 100 µM (inactive); with M14, > 100 µM (inactive). Further, the GI50 in the assay on HOP-62, with Malme-3M, with SK-MEL-28, in the assay on NCI-H226, in the assay on OVCAR-8 and with SF-539 was > 100 µM (inactive) in each case. Also, the GI50 in the assay on UO-31, in the assay on UACC-257, with A549, in the assay with LOX IMVI and with SW-620 was > 100 µM (inactive) throughout.
As to `CC(N)C(C)Cc1ccccc1` (stereo not given), the GI50 with PC-3 is > 100 µM (inactive); in the assay on UACC-62, > 100 µM (inactive); with NCI-H460 it was > 100 µM (inactive); in the assay on HCT-15 it was more than 100 µM; with OVCAR-5 it was > 100 µM (inactive); in the assay with SF-268 it was > 100 µM (inactive). Besides, the GI50 with HL-60, in the assay on M14, with HOP-62, in the assay on Malme-3M, in the assay on SK-MEL-28 and in the assay on SK-OV-3 was > 100 µM (inactive) in each case. For the same compound, the GI50 in the assay on NCI-H226, with OVCAR-8, in the assay with UO-31, in the assay with UACC-257, in the assay on A549 and in the assay with LOX IMVI was > 100 µM (inactive) throughout. In the assay on SW-620, the GI50 is > 100 µM (inactive).
